Where two headings read alike, the source gives them in different places.
Assays:
[1] = system: H1975 cells; assay: Cell cytotoxicity assay (MTS), H1975; format: cell-based, human
Procedure: (§1) Cells were seeded into the wells of 96-well plates (2000 cells/well). After an overnight culture, the cells were treated with different concentrations of a compound for 72 h. The CellTiter 96 AQueous one-solution cell proliferation assay (MTS) reagent was used to determine cytotoxicity. After treatment with a compound, 20 μL of the MTS reagent was added to each well and the plates were incubated at 37° C. for 1-4 h. Next, the absorbance at 490 nm of the culture medium in each well was determined using a VersaMax microplate reader (Molecular Devices).

[2] = system: human fibroblast (HFB) cells; assay: Cell cytotoxicity assay (MTS), human fibroblast; format: cell-based; settings: normal cell line HFB
Procedure: as §1

[3] = system: MDA-MB-231; assay: Cell cytotoxicity assay (MTS), MDA-MB-231; format: cell-based; settings: Homo sapiens, MDA-MB-231, 72 h
Procedure: as §1

[4] = system: HDQP1; assay: Cell cytotoxicity assay, HDQP1; format: cell-based; settings: Homo sapiens, HDQ-P1; TNBC cell line HDQP1
Procedure: as §1

[5] = system: KBvin; assay: Cell cytotoxicity assay (MTS), KBvin; format: cell-based, human; settings: for IC50: Homo sapiens, KBvin, P-gp overexpressing, vincristine-selected KB subline; for RF, resistance factor (IC50 in resistant cell line/IC50 in parent cell line): KBvin vs KB
Procedure: as §1

[6] = system: KBtax xenograft tumors; assay: KBtax xenograft tumor model; format: in vivo, BALB/c nude mice; settings: after 21 days, i.p. three times a week; paclitaxel 15 mg/kg, RJ-LC-15-8 8 mg/kg
Procedure: Using the H1975, MDA-MB-231, and KBtax xenograft models, tumors were established after inoculation into the right flanks of 6-week-old BALB/c nude mice (NARLabs, Taipei, Taiwan). After establishment of the tumors, vehicle and test compounds, which had been dissolved in DMSO, were each injected intraperitoneally into a separate group of animals three times per week. The body mass of each animal and tumor volumes were measured before each drug delivery. Tumor volume was calculated as 0.5W^2L (with W being the width of the smaller diameter and L being the length of the larger diameter). The animal experiment was carried out in accordance with the procedures and guidelines of the Institutional Animal Care and Use Committee, Institute of Biomedical Sciences, Academia Sinica.

[7] = system: CEM/VBL; assay: Cell cytotoxicity assay (MTS), CEM/VBL; format: cell-based, human; settings: for RF, resistance factor (IC50 in resistant cell line/IC50 in parent cell line): CEM/VBL vs CCRF-CEM; for IC50: Homo sapiens, CEM/VBL, P-gp overexpressing, vinblastine-selected CCRF-CEM subline
Procedure: as §1

[8] = system: HDQP1/TAX; assay: Cell cytotoxicity assay, HDQP1/TAX; format: cell-based, human
Procedure: as §1

[9] = system: KBtax; assay: Cell cytotoxicity assay (MTS), KBtax; format: cell-based, human; settings: for IC50: Homo sapiens, KBtax, P-gp overexpressing, paclitaxel-selected KB subline; for RF, resistance factor (IC50 in resistant cell line/IC50 in parent cell line): KBtax vs KB
Procedure: as §1

[10] = biological target: T1, Purified porcine tubulin (Sus scrofa, UniProt P02554); assay: In vitro tubulin polymerization assay; format: biochemical; settings: 5 μM, A340 every min for 1 h at 37° C.
T1 construct: purchased Cytoskeleton
T1 sequence (P02554 whole entry): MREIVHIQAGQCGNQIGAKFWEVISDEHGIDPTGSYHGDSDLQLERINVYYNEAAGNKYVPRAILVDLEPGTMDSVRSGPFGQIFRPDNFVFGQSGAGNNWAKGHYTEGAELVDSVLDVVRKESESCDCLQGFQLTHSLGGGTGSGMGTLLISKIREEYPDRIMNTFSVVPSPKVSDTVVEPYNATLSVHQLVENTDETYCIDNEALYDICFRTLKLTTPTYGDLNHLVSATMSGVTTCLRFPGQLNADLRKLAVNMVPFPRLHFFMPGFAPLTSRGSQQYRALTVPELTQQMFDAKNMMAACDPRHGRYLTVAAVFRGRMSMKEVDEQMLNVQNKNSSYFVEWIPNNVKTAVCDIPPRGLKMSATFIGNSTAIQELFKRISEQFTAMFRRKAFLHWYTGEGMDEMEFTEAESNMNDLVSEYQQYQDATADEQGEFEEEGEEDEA
T1 sequence (P02550 whole entry partner): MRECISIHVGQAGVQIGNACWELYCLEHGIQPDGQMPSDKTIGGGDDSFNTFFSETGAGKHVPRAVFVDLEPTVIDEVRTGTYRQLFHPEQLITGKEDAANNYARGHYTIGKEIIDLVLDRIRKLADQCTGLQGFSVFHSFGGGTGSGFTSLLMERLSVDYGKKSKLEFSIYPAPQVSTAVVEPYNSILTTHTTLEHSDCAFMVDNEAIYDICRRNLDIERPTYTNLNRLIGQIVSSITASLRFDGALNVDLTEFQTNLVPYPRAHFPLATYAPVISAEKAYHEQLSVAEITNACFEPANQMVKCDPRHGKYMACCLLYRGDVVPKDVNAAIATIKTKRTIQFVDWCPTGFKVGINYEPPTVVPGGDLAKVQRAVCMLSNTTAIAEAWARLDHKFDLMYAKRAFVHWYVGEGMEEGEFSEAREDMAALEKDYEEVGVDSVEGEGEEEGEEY
Procedure: Reagents from a Tubulin Polymerization Assay kit (Cytoskeleton) were used according to the manufacturer's instructions. Purified porcine tubulin (4 mg/mL; >99% purity) in G-PEM buffer (80 mM PIPES, 2 mM MgCl2, 0.5 mM EGTA, 1 mM GTP, 15% glycerol, pH 6.9) was mixed with each test compound in the wells of a 96-well plate. Then, the A340 value was recorded each minute for 1 h at 37° C. with the VersaMax microplate reader.

[11] = system: CCRF-CEM; assay: Cell cytotoxicity assay (MTS), CCRF-CEM; format: cell-based; settings: Homo sapiens
Procedure: as §1

[12] = Body mass and serum biochemical markers, KBtax xenograft mice; format: in vivo, BALB/c nude mice; settings: end of experiment; paclitaxel 15 mg/kg, RJ-LC-15-8 8 mg/kg; mean ± SEM
Procedure: The body mass of each animal and tumor volumes were measured before each drug delivery. Tumor volume was calculated as 0.5W^2L (with W being the width of the smaller diameter and L being the length of the larger diameter). The animal experiment was carried out in accordance with the procedures and guidelines of the Institutional Animal Care and Use Committee, Institute of Biomedical Sciences, Academia Sinica.

[13] = system: KB; assay: Cell cytotoxicity assay (MTS), KB; format: cell-based; settings: Homo sapiens
Procedure: as §1

[14] = Homo sapiens, NCI-H1975, H1975 cells, cell-based SAR study, read-out: IC50
[15] = Homo sapiens, NCI-H1975, Table 8, cell line not given, values match H1975, read-out: IC50
[16] = Homo sapiens, NCI-H1975, 72 h, H1975 cells, 72 h, MTS, read-out: IC50

With `CCOC(=O)c1ccc2[nH]c(-c3cccc(O)c3)cc(=O)c2c1` [RJ-LC-15-11, Ethyl 2-(3-hydroxyphenyl)-4-oxo-1,4-dihydroquinoline-6-carboxylate] the IC50 [1, 14] was 1.95 µM and the IC50 [1, 15] was 1.95 ± 0.2 µM.

Work on `COC(=O)c1ccc2[nH]c(-c3cccc(F)c3)cc(=O)c2c1` [RJ-LC-15-22, Methyl 2-(3-fluorophenyl)-4-oxo-1,4-dihydroquinoline-6-carboxylate] yielded an IC50 [1, 15] of 0.027 ± 0.006 µM.

For `CCOC(=O)c1ccc2[nH]c(-c3ccc(Br)cc3)cc(=O)c2c1` [RJ-LC-15-6, Ethyl 2-(4-bromophenyl)-4-oxo-1,4-dihydroquinoline-6-carboxylate], the IC50 [1, 14] was 4.5 µM and the IC50 [1, 15] was 4.5 ± 0.9 µM.

In the case of `CCOC(=O)c1ccc2[nH]c(-c3cccc(C(F)(F)F)c3)cc(=O)c2c1` [RJ-LC-15-9, Ethyl 4-oxo-2-(3-(trifluoromethyl)phenyl)-1,4-dihydroquinoline Carboxylate], the IC50 [1, 16] is reported as 0.78 µM and the IC50 [1, 15] is reported as 0.78 ± 0.012 µM.

With `CCOCc1ccc2[nH]c(-c3ccccc3)cc(=O)c2c1` [RJ-LC-15-16, 6-(ethoxymethyl)-2-phenylquinolin-4(1H)-one] the IC50 [1, 16] was 0.81 µM and the IC50 [1, 15] was 0.81 ± 0.12 µM.

In the case of `CCOC(=O)c1ccc2[nH]c(-c3ccc(O)cc3)cc(=O)c2c1` [RJ-LC-15-10, Ethyl 2-(4-hydroxyphenyl)-4-oxo-1,4-dihydroquinoline-6-carboxylate], the IC50 [1, 16] is reported as 0.475 µM and the IC50 [1, 15] is reported as 0.475 ± 0.031 µM.

In the case of `COC(=O)c1ccc2[nH]c(-c3ccccc3)cc(=O)c2c1` [RJ-LC-15-14, Methyl 4-oxo-2-phenyl-1,4-dihydroquinoline-6-carboxylate], the IC50 [1, 16] is reported as 0.207 µM and the IC50 [1, 15] is reported as 0.207 ± 0.039 µM.

With `O=C(O)c1ccc2[nH]c(-c3ccccc3)cc(=O)c2c1` [RJ-LC-15-1, 4-oxo-2-phenyl-1,4-dihydroquinoline-6-carboxylic Acid] the IC50 [1, 14] was over 5 µM and the IC50 [1, 15] was over 5 µM.

With `O=C(OCCOCCOCCOCCO)c1ccc2[nH]c(-c3ccccc3)cc(=O)c2c1` [RJ-LC-15-3, 2-(2-(2-(2-hydroxyethoxy)ethoxy)ethoxy)ethyl 4-oxo-2-phenyl-1,4-dihydro quinoline-6-carboxylate] the IC50 [1, 15] was 3.3 ± 0.99 µM.

Compound `CCOC(=O)c1ccc2[nH]c(-c3ccc(OC)cc3)cc(=O)c2c1` [RJ-LC-15-4, Ethyl 2-(4-methoxyphenyl)-4-oxo-1,4-dihydroquinoline-6-carboxylate] has an IC50 [1, 14] of 2.2 µM and an IC50 [1, 15] of 2.2 ± 0.2 µM.

In the case of `O=C(O)c1ccc2[nH]c(-c3cccc(F)c3)cc(=O)c2c1` [RJ-LC-15-26, 2-(3-fluorophenyl)-4-oxo-1,4-dihydroquinoline-6-carboxylic Acid], the IC50 [1, 15] is reported as over 10 µM.

Work on `CCNC(=O)c1ccc2[nH]c(-c3cccc(F)c3)cc(=O)c2c1` [RJ-LC-15-27, N-ethyl-2-(3-fluorophenyl)-4-oxo-1,4-dihydroquinoline-6-carboxamide] yielded an IC50 [1, 15] of 5.6 ± 0.39 µM.

`O=C(Oc1ccccc1)c1ccc2[nH]c(-c3cccc(F)c3)cc(=O)c2c1` [RJ-LC-15-24, Phenyl 2-(3-fluorophenyl)-4-oxo-1,4-dihydroquinoline-6-carboxylate] gave an IC50 [1, 15] of 0.3 ± 0.008 µM.

Compound `CCOC(=O)c1ccc2[nH]c(-c3cccc(F)c3)cc(=O)c2c1` [RJ-LC-15-20, Ethyl 2-(3-fluorophenyl)-4-oxo-1,4-dihydroquinoline-6-carboxylate Methanesulfonate] has an IC50 ([1]; Table 8, cell line not given, values match H1975, Methanesulfonate, read-out: IC50) of 0.042 ± 0.004 µM.

For `CCOC(=O)c1cccc2[nH]c(-c3ccccc3)cc(=O)c12` [RJ-LC-15-17, Ethyl 4-oxo-2-phenyl-1,4-dihydroquinoline-5-carboxylate], the IC50 [1, 15] was over 10 µM.

For `CC(C)OC(=O)c1ccc2[nH]c(-c3cccc(F)c3)cc(=O)c2c1` [RJ-LC-15-23, Isopropyl 2-(3-fluorophenyl)-4-oxo-1,4-dihydroquinoline-6-carboxylate], the IC50 [2] was over 10 µM, the IC50 [3] was 0.01 ± 0.0005 µM and the IC50 [1, 16] was 0.006 ± 0.00216 µM. For the same compound, the IC50 [1, 15] was 0.006 ± 0.002 µM.

In the case of `CCOC(=O)c1ccc2c(=O)cc(-c3ccccc3)[nH]c2c1` [RJ-LC-15-18, Ethyl 4-oxo-2-phenyl-1,4-dihydroquinoline-7-carboxylate], the IC50 [1, 15] is reported as 0.097 ± 0.003 µM.

`CCOC(=O)c1ccc2[nH]c(-c3ccccc3)cc(=O)c2c1` [RJ-LC-15-19, Ethyl 4-oxo-2-phenyl-1,4-dihydroquinoline-6-carboxylate Methane Sulfonate] gave an IC50 ([1]; Table 8, cell line not given, values match H1975, read-out: IC50) of 0.069 ± 0.004 µM.

Work on `CCNC(=O)c1ccc2[nH]c(-c3ccccc3)cc(=O)c2c1` [RJ-LC-15-2, N-ethyl-4-oxo-2-phenyl-1,4-dihydroquinoline-6-carboxamide] yielded an IC50 [1, 14] of 3.7 µM and an IC50 [1, 15] of 3.7 ± 0.73 µM.

For `CC(=O)O[C@H]1C(=O)[C@@]2(C)[C@H]([C@H](OC(=O)c3ccccc3)[C@]3(O)C[C@H](OC(=O)[C@H](O)[C@@H](NC(=O)c4ccccc4)c4ccccc4)C(C)=C1C3(C)C)[C@]1(OC(C)=O)CO[C@@H]1C[C@@H]2O` [Paclitaxel, paclitaxel], the IC50 [4] was 0.005 ± 0.00305 µM, the IC50 [5] was 0.708 ± 0.0469 µM and the “RF, resistance factor (IC50 in resistant cell line/IC50 in parent cell line)” value (“RF, resistance factor” for short) [5] was 70. The average tumor size [6] was 868.7±121.4 mm^3, the “RF, resistance factor” value [7] was 214 and the IC50 [7] was 0.857 ± 0.00989 µM. The “RF, resistance factor” value ([8]; HDQP1/TAX vs HDQP1) was 167, the IC50 ([8]; Homo sapiens, HDQ-P1, Paclitaxel-resistant subline) was 0.839 ± 0.142 µM and the IC50 [9] was 0.101 ± 0.00552 µM. For the same compound, the “RF, resistance factor” value [9] was 10, the tubulin polymerization [10] was “enhanced polymerization” and the IC50 [11] was 0.004 ± 2e-05 µM. For the same compound, the “AST(IU/L)” value [12] was 102.8 ± 18.9 IU/L, the “BUN” value [12] was 19 ± 1.3 mg/dL and the “Cre” value [12] was 0.16 ± 0.02 mg/dL.

`CC(C)OC(=O)c1ccc2[nH]c(-c3ccccc3)cc(=O)c2c1` [RJ-LC-15-15, Isopropyl 4-oxo-2-phenyl-1,4-dihydroquinoline-6-carboxylate] gave an IC50 [1, 16] of 0.048 µM and an IC50 [1, 15] of 0.048 ± 0.005 µM.

With `CCOC(=O)c1ccc2[nH]c(-c3ccc(F)cc3)cc(=O)c2c1` [RJ-LC-15-5, Ethyl 2-(4-fluorophenyl)-4-oxo-1,4-dihydroquinoline-6-carboxylate] the IC50 [1, 14] was 2.1 µM and the IC50 [1, 15] was 2.1 ± 0.21 µM.

With `C/C(=C\c1csc(C)n1)[C@@H]1C[C@@H]2O[C@]2(C)CCC[C@H](C)[C@H](O)[C@@H](C)C(=O)C(C)(C)[C@@H](O)CC(=O)N1` [Ixabepilone, ixabepilone] the IC50 [5] was 0.193 ± 0.0242 µM, the “RF, resistance factor” value [5] was 24 and the “RF, resistance factor” value [7] was 50. For the same compound, the IC50 [7] was 0.15 ± 0.00659 µM, the IC50 [9] was 0.035 ± 0.00071 µM and the “RF, resistance factor” value [9] was 4.3. It also gave an IC50 [11] of 0.003 ± 6e-05 µM and an IC50 [13] of 0.008 ± 0.00037 µM.

Work on `CCOC(=O)c1ccc2[nH]c(-c3cccc(OC)c3)cc(=O)c2c1` [RJ-LC-15-7, Ethyl 2-(3-methoxyphenyl)-4-oxo-1,4-dihydroquinoline-6-carboxylate] yielded an IC50 [1, 16] of 0.044 µM and an IC50 [1, 15] of 0.044 ± 0.001 µM.

In the case of `CCOC(=O)c1ccc2[nH]c(-c3cccc(Br)c3)cc(=O)c2c1` [RJ-LC-15-25, Ethyl 2-(3-bromophenyl)-4-oxo-1,4-dihydroquinoline-6-carboxylate], the IC50 [1, 15] is reported as 0.07 ± 0.019 µM.

Compound `O=C(O)c1ccc2[nH]c(-c3ccccc3)cc(=O)c2c1` [RJ-LC-15-21, Sodium 4-oxo-2-phenyl-1,4-dihydroquinoline-6-carboxylate] has an IC50 ([1]; Homo sapiens, NCI-H1975) of over 10 µM.

From patent US12109207B2, “Methods of using 4(1H)-quinolone derivatives” (Academia Sinica, priority 2019, dated 2024)
